Laboratory results reported in patent US10385103B2, “Cell-permeable (ICP)-SOCS3 recombinant protein and uses thereof” (CELLIVERY THERAPEUTICS, INC., priority 2014, dated 2019).

System: RAW 264.7 cells
Assay: Quantitative cell-permeability of FITC-labeled aMTD- or rPeptide-fused CRA recombinant proteins (flow cytometry)
Format: cell-based
Settings: for Relative Ratio to aMTD AVE: cell-permeability of rPeptide-fused CRA recombinant protein relative to average of 240 aMTDs
Description: The aMTDs and rPeptides were fluorescently labeled and compared based on the critical factors for cell-permeability by using flow cytometry and confocal laser scanning microscopy (FIGS. 5 to 8). The cellular uptake of the peptide-fused non-functional cargo recombinant proteins could quantitatively be evaluated in flow cytometry, while confocal laser scanning microscopy allows intracellular uptake to be assessed visually. The analysis included recombinant proteins fused to a negative control [rP38] that has opposite characteristics (hydrophilic and aromatic sequence: […] NO: 952)) to the aMTDs (hydrophobic and aliphatic sequences). Relative cell-permeability (relative fold) of aMTDs to the negative control was also analyzed (Table 23 and FIG. 9). […] RAW 264.7 cells were treated with 10 μM FITC-labeled recombinant proteins for 1 hour at 37° C., washed three times with cold PBS, treated with 0.25% tripsin/EDTA (Sigma-Aldrich, St. Louis, Mo.) for 20 minutes at 37° C. to remove cell-surface bound proteins. Cell-permeability of these recombinant proteins were analyzed by flow cytometry (Guava, Millipore, Darmstadt, Germany) using the FlowJo cytometric analysis software (FIGS. 5 to 6).

[1] = cell-permeability relative to negative control rP38 (A type), aMTD-fused CRA recombinant protein, 10 μM FITC-labeled, 1 hour, 37° C., RAW 264.7 cells
[2] = cell-permeability relative to reference CPP MTD85 (C type), aMTD-fused CRA recombinant protein, 10 μM FITC-labeled, 1 hour, 37° C., RAW 264.7 cells
[3] = cell-permeability relative to reference CPP MTM12 (B type), aMTD-fused CRA recombinant protein, 10 μM FITC-labeled, 1 hour, 37° C., RAW 264.7 cells
[4] = cell-permeability of aMTD-fused CRA recombinant protein relative to negative control (A: rP38)
[5] = cell-permeability of aMTD-fused CRA recombinant protein relative to reference CPP (B: MTM12)
[6] = cell-permeability of aMTD-fused CRA recombinant protein relative to reference CPP (C: MTD85)
[7] = 10 μM FITC-labeled, 1 hour, 37° C., RAW 264.7 cells

Substance	Relative Ratio (Fold) A [1] [Fold]	Relative Ratio (Fold) C [2] [Fold]	Relative Ratio (Fold) B [3] [Fold]	Relative Ratio (Fold) A [4] [Fold]	Relative Ratio (Fold) B [5] [Fold]	Relative Ratio (Fold) C [6] [Fold]	also measured
62 (VALLAPVALAVP; Amino acid Sequence of aMTD62) [compound 62]	1.4	0.5	0.9	–	–	–	–
64 (AIVALPVAVLAP; Amino acid Sequence of aMTD64) [compound 64]	–	–	–	15.8	10.6	5.3	–
65 (IAIVAPVVALAP; Amino acid Sequence of aMTD65) [compound 65]	3.0	1.0	2.0	–	–	–	–
66 (AGVLGGPIMGVP; Amino acid Sequence of rPeptide ID 66) [compound 66]	–	–	–	–	–	–	Relative Ratio to aMTD AVE [7]: 0.13
67 (LDAEVPLADDVP; Amino acid Sequence of rPeptide ID 67) [compound 67]	–	–	–	–	–	–	Relative Ratio to aMTD AVE [7]: 0.08; Relative Ratio (Fold) A (relative cell-permeability of rPeptide vs reference A (not defined)): 1.5 Fold; Relative Ratio (Fold) B (relative cell-permeability of rPeptide vs reference CPP B: MTM12): 0.9 Fold; Relative Ratio (Fold) C (relative cell-permeability of rPeptide vs reference CPP C: MTD85): 0.5 Fold
68 (VAPVLPAAPLVP; Amino acid Sequence of rPeptide ID 68) [compound 68]	–	–	–	–	–	–	Relative Ratio to aMTD AVE [7]: 0.32
82 (AVVLAPVAAVLP; Amino acid Sequence of aMTD82) [compound 82]	2.1	0.7	1.4	–	–	–	–
83 (LAVAAPLALALP; Amino acid Sequence of aMTD83) [compound 83]	1.4	0.5	0.9	–	–	–	–
84 (AAVAAPLLLALP; Amino acid Sequence of aMTD84) [compound 84]	1.5	0.5	1.0	–	–	–	–
85 (LLVLPAAALAAP; Amino acid Sequence of aMTD85) [compound 85]	1.9	0.7	1.3	–	–	–	–
97 (ALLAAPPALLAL; Amino acid Sequence of rPeptide ID 97) [compound 97]	–	–	–	–	–	–	Relative Ratio to aMTD AVE [7]: 0.41
105 (LLALAPAALLAP; Amino acid Sequence of aMTD105) [compound 105]	4.0	1.3	2.6	–	–	–	–
113 (PVAVALLIAVPP; Amino acid Sequence of rPeptide ID 113) [compound 113]	–	–	–	–	–	–	Relative Ratio to aMTD AVE [7]: 0.61
121 (AIVALPALALAP; Amino acid Sequence of aMTD121) [compound 121]	2.5	0.8	1.7	–	–	–	–
124 (IAVALPALIAAP; Amino acid Sequence of aMTD124) [compound 124]	–	–	–	43.6	29.0	14.7	–
139 (TGSTNSPTCTST; Amino acid Sequence of rPeptide ID 139) [compound 139]	–	–	–	–	–	–	Relative Ratio to aMTD AVE [7]: 0.17
141 (AVIVLPALAVAP; Amino acid Sequence of aMTD141) [compound 141]	–	–	–	9.4	6.3	3.2	–
143 (AVLAVPAVLVAP; Amino acid Sequence of aMTD143) [compound 143]	3.3	1.1	2.2	–	–	–	–
145 (LLAVVPAVALAP; Amino acid Sequence of aMTD145) [compound 145]	–	–	–	9.5	6.3	3.2	–
161 (AVIALPALIAAP; Amino acid Sequence of aMTD161) [compound 161]	–	–	–	34.5	23.0	11.6	–

Substance	Relative Ratio (Fold) A [1] [Fold]	Relative Ratio (Fold) C [2] [Fold]	Relative Ratio (Fold) B [3] [Fold]	Relative Ratio (Fold) A [4] [Fold]	Relative Ratio (Fold) B [5] [Fold]	Relative Ratio (Fold) C [6] [Fold]	also measured
167 (VAIAIPAALAIP; Amino acid Sequence of rPeptide ID 167) [compound 167]	–	–	–	–	–	–	Relative Ratio to aMTD AVE [7]: 0.50
182 (ALIAPVVALVAP; Amino acid Sequence of aMTD182) [compound 182]	4.0	1.4	2.7	–	–	–	–
183 (LLAAPVVIALAP; Amino acid Sequence of aMTD183) [compound 183]	6.0	2.0	4.0	–	–	–	–
184 (LAAIVPAIIAVP; Amino acid Sequence of aMTD184) [compound 184]	4.8	1.6	3.2	–	–	–	–
185 (AALVLPLIIAAP; Amino acid Sequence of aMTD185) [compound 185]	–	–	–	8.5	5.7	2.9	–
201 (LALAVPALAALP; Amino acid Sequence of aMTD201) [compound 201]	4.2	1.4	2.8	–	–	–	–
221 (AAILAPIVALAP; Amino acid Sequence of aMTD221) [compound 221]	–	–	–	10.9	7.3	3.7	–
222 (ALLIAPAAVIAP; Amino acid Sequence of aMTD222) [compound 222]	–	–	–	32.6	21.7	11.0	–
223 (AILAVPIAVVAP; Amino acid Sequence of aMTD223) [compound 223]	–	–	–	33.0	22.1	11.2	–
225 (VAALLPAAAVLP; Amino acid Sequence of aMTD225) [compound 225]	–	–	–	18.3	12.2	6.2	–
227 (LAAIVPIAAAVP; Amino acid Sequence of rPeptide ID 227) [compound 227]	–	–	–	–	–	–	Relative Ratio to aMTD AVE [7]: 0.08
241 (AAAVVPVLLVAP; Amino acid Sequence of aMTD241) [compound 241]	–	–	–	16.6	11.0	5.6	Relative Ratio to aMTD AVE [7]: 0.33
242 (AALLVPALVAAP; Amino acid Sequence of aMTD242) [compound 242]	–	–	–	14.6	9.7	4.9	–
243 (AAVLLPVALAAP; Amino acid Sequence of aMTD243) [compound 243]	5.9	2.0	3.9	–	–	–	–
245 (AAALAPVLALVP; Amino acid Sequence of aMTD245) [compound 245]	–	–	–	7.5	5.0	2.5	–
261 (LVLVPLLAAAAP; Amino acid Sequence of aMTD261) [compound 261]	–	–	–	18.5	12.3	6.2	–
262 (ALIAVPAIIVAP; Amino acid Sequence of aMTD262) [compound 262]	5.5	1.9	3.7	–	–	–	–
263 (ALAVIPAAAILP; Amino acid Sequence of aMTD263) [compound 263]	–	–	–	9.0	6.0	3.0	–
264 (LAAAPVVIVIAP; Amino acid Sequence of aMTD264) [compound 264]	–	–	–	18.2	12.1	6.1	Relative Ratio (Fold) A (relative cell-permeability of aMTD vs reference A (not defined)): 18.2 Fold; Relative Ratio (Fold) B (relative cell-permeability of aMTD vs reference CPP B: MTM12): 12.1 Fold; Relative Ratio (Fold) C (relative cell-permeability of aMTD vs reference CPP C: MTD85): 6.1 Fold
265 (VLAIAPLLAAVP; Amino acid Sequence of aMTD265) [compound 265]	6.0	2.0	4.0	–	–	–	–
